Test results published in PubChem BioAssay AID1436 (PCMD, 2008).
Results filed as inconclusive are left out. Active and inactive are the calls of the source. How the calls were made is not given here.

Target: DNA repair protein RAD51 homolog 1 (Homo sapiens) (UniProt Q06609)
Test: RAD51-DNA association blockers – biochemical, fluorescence, dose response (AID 1436)
Settings: RAD51 DNA binding

DNA repair protein RAD51 homolog 1 (Homo sapiens), sequence (Q06609 whole entry, looked up): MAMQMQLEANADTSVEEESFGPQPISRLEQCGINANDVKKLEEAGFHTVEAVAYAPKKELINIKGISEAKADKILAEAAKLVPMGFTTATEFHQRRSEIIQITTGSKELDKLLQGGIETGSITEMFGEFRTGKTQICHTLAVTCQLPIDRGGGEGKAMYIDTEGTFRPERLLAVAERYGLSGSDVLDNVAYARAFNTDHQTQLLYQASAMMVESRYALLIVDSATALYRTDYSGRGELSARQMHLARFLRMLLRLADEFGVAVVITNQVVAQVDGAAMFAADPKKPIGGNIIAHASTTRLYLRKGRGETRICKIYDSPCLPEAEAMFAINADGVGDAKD

| IC50 | SMILES |
| --- | --- |
| > 42.5 µM (inactive) | COC(=O)c1ccc(=O)c2nc3/c(=C/O)c(O)cc(=O)c3[nH]c12 |
| > 85 µM (inactive) | COc1cccc2c1C(=O)c1c(O)c3c(c(O)c1C2=O)C[C@@](O)(C(=O)CO)C[C@@H]3O[C@H]1C[C@H](N)[C@@H](O)[C@H](C)O1 |
